The target in this assay is IRAK4 (Homo sapiens (Human), UniProt Q9NWZ3). Briefly: IRAK4 Kinase Assay (IMAP fluorescence polarization). Format: biochemical. The note with it: 0.5 nM GST tagged IRAK4, 100 μM ATP, 30 minutes at 25° C., IMAP FP. As to the method:
The kinase activity of IRAK4 is determined by its ability to catalyze the phosphorylation of a fluorescent polypeptide substrate. The extent of phosphorylation is measured using the IMAP technology (Molecular Devices) where the phosphorylated fluorescent substrate binds to the large M (III)-based nanoparticles which reduces the rotational speed of the substrate and thus increases its fluorescent polarization (FP).
20 μL reaction mixture contains 10 mM TriHCl, pH 7.2, 0.5 nM GST tagged IRAK4 (SignalChem), 100 nM fluorescent peptide substrate (RP7030, Molecular Devices), 100 μM ATP, 1 mM DDT, 1 mM MgCl2, and 0.01% Tween 20. The reaction is initiated by the addition of ATP. After incubation for 30 minutes at 25° C., 60 μL of Progressive IMAP Reagent (Molecular Devices) is added to stop the reaction. Change in RP7030's FP is determined by a FP reader (Analyst HT, LJL BioSystems).

These results are taken from patent publication US10040798B2, “Pyrrolopyridazine inhibitors of IRAK4 activity” (MERCK SHARP & DOHME CORP., priority 2015, dated 2018).

For orientation: IC50 means the midpoint of a concentration-inhibition curve. The low end stands for greater potency in that assay, the high end for weaker potency in that assay.

Molecules are shown by their SMILES. Structures can show the parent of a compound that is named as a salt.

Sequence of IRAK4 (Q9NWZ3 whole entry): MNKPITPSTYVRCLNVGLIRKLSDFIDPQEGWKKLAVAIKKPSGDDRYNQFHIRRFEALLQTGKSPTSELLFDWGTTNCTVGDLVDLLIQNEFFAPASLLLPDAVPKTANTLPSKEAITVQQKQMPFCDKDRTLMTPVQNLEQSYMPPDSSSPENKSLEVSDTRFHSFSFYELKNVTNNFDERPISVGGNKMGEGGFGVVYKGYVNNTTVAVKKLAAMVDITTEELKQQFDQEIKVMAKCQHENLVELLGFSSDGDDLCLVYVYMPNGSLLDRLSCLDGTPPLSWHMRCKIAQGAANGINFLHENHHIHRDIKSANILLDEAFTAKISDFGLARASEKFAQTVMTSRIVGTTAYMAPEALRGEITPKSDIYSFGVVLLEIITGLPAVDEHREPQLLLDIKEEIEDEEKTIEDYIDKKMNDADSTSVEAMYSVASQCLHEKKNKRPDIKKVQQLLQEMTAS

`N[C@@H]1[C@H](Nc2ccc3ccc(C(=O)Nc4ccsc4Br)n3n2)CCCC1(F)F` [Example 86, 2-{[(1R,2R)-2-amino-3,3-difluoro-cyclohexyl]amino}-N-(2-bromothiophen-3-yl)pyrrolo[1,2-b]pyridazine-7-carboxamide trifluoroacetate] returned an IC50 of 5240 nM. In the case of `Cn1cc(NC(=O)c2ccc3ccc(N[C@@H]4CCCC[C@@H]4O)nn23)c(C(F)F)n1` [Example 20, N-[3-(difluoromethyl)-1-methyl-1H-pyrazol-4-yl]-2-{[(1R,2S)-2-hydroxycyclohexyl]amino}pyrrolo[1,2-b]pyridazine-7-carboxamide trifluoroacetate], the 50% inhibitory concentration (IC50) was found to be 11 nM. For `N#Cc1sccc1NC(=O)c1ccc2ccc(N3CCCNCC3)nn12` [Example 67, N-(2-cyanothiophen-3-yl)-2-(1,4-diazepan-1-yl)pyrrolo[1,2-b]pyridazine-7-carboxamide trifluoroacetate], half-maximal inhibition (IC50) required 197 nM. Then `Cn1cc(NC(=O)c2ccc3ccc(N4CCNCC4)nn23)c(C(F)F)n1` [Example 14, N-[3-(difluoromethyl)-1-methyl-1H-pyrazol-4-yl]-2-piperazin-1-ylpyrrolo[1,2-b]pyridazine-7-carboxamide trifluoroacetate], with 2 nM; and `N[C@@H]1[C@H](Nc2ccc3ccc(C(=O)Nc4ccccc4Br)n3n2)CCCC1(F)F` [Example 94, 2-{[(1R,2R)-2-amino-3,3-difluoro-cyclohexyl]amino}-N-(2-bromophenyl)pyrrolo[1,2-b]pyridazine-7-carboxamide trifluoroacetate], with 5630 nM; and `N#Cc1sccc1NC(=O)c1ccc2ccc(N[C@@H]3CCCC(F)(F)[C@@H]3N)nn12` [Example 98, 2-{[(1R,2R)-2-amino-3,3-difluorocyclohexyl]amino}-N-(2-cyanothiophen-3-yl)pyrrolo[1,2-b]pyridazine-7-carboxamide trifluoroacetate], with 526 nM. Consider `Cn1cc(NC(=O)c2ccc3ccc(N4CC5CCC4CN5)nn23)c(C(F)(F)F)n1` (stereo not shown) [Example 8, 2-(2,5-diazabicyclo[2.2.2]oct-2-yl)-N-[1-methyl-3-(trifluoromethyl)-1H-pyrazol-4-yl]pyrrolo[1,2-b]pyridazine-7-carboxamide], for which the IC50 amounted to 19 nM. As for `N#Cc1cscc1NC(=O)c1ccc2ccc(N3CCCNCC3)nn12` [Example 68, N-(4-cyanothiophen-3-yl)-2-(1,4-diazepan-1-yl)pyrrolo[1,2-b]pyridazine-7-carboxamide trifluoroacetate], the IC50 turned out to be 190 nM. In turn, `Cn1cc(NC(=O)c2ccc3ccc(N[C@@H]4CCCC[C@@H]4N)nn23)c(Br)n1` [Example 22, 2-{[(1R,2S)-2-amino-cyclohexyl]amino}-N-(3-bromo-1-methyl-1H-pyrazol-4-yl)pyrrolo[1,2-b]pyridazine-7-carboxamide trifluoroacetate] yielded a concentration for half-maximal inhibition (IC50) of 2 nM.

The compound `Cn1cc(NC(=O)c2ccc3ccc(N4CCNCC4)nn23)c(C(F)(F)F)n1` [Example 99, N-(1-Methyl-3-(trifluoromethyl)-1H-pyrazol-4-yl)-2-(piperazin-1-yl)pyrrolo[1,2-b]pyridazine-7-carboxamide] returned an IC50 of 63 nM. Against the preceding compound, the IC50 is about 32-fold higher. On to `Cn1cc(NC(=O)c2ccc3ccc(NC4CCCCNC4)nn23)c(C(F)F)n1` (stereo not shown) [Example 24, 2-(azepan-3-ylamino)-N-[3-(difluoromethyl)-1-methyl-1H-pyrazol-4-yl]pyrrolo[1,2-b]pyridazine-7-carboxamide trifluoroacetate], for which 2 nM corresponded to half-maximal inhibition (IC50). This IC50 is about 32-fold lower than that of the compound before.

`Cn1cc(NC(=O)c2ccc3ccc(N[C@@H]4CCCNC4)nn23)c(C(F)(F)F)n1` [Example 6, N-[1-methyl-3-(trifluoromethyl)-1H-pyrazol-4-yl]-2-[(3R)-piperidin-3-ylamino]pyrrolo[1,2-b]pyridazine-7-carboxamide trifluoroacetate] came in with an IC50 of 1 nM. Compound `Cn1cc(NC(=O)c2ccc3ccc(N4C5CCC4CNC5)nn23)c(C(F)F)n1` [Example 119, 2-(3,8-Diazabicyclo[3.2.1]octan-8-yl)-N-(3-(difluoromethyl)-1-methyl-1H-pyrazol-4-yl)pyrrolo[1,2-b]pyridazine-7-carboxamide] displayed an IC50 of 0.5 nM. This IC50 is about 2-fold lower than that of the compound before.

`N[C@H]1CCCC[C@H]1Nc1ccc2ccc(C(=O)Nc3ccsc3Br)n2n1` [Example 77, 2-{[(1R,2S)-2-aminocyclohexyl]amino}-N-(2-bromothiophen-3-yl)pyrrolo[1,2-b]pyridazine-7-carboxamide trifluoroacetate]: inhibition was half-maximal at 11 nM (IC50). In turn, `N[C@H]1CCCC[C@H]1Nc1ccc2ccc(C(=O)Nc3ccccc3Br)n2n1` [Example 58, 2-{[(1R,2S)-2-aminocyclohexyl]amino}-N-(2-bromo-phenyl)pyrrolo[1,2-b]pyridazine-7-carboxamide trifluoroacetate] returned an IC50 of 11 nM.

Turning to `N[C@H]1CCCC[C@H]1Nc1ccc2ccc(C(=O)Nc3ccccc3C(F)F)n2n1` [Example 112, 2-{[(1R,2S)-2-aminocyclohexyl]amino}-N-[2-(difluoromethyl)phenyl]pyrrolo[1,2-b]pyridazine-7-carboxamide trifluoroacetate], the IC50 was found to be 472 nM.

As for `O=C(Nc1ccccc1Cl)c1ccc2ccc(N3CCCNCC3)nn12` [Example 59, N-(2-chlorophenyl)-2-(1,4-diazepan-1-yl)pyrrolo[1,2-b]pyridazine-7-carboxamide trifluoroacetate], it took 1200 nM to reach half-maximal inhibition (IC50). Compound `Cn1cc(NC(=O)c2ccc3ccc(N4CCNCC5(CC5)C4)nn23)c(C(F)(F)F)n1` [Example 9, 2-(5,8-diazaspiro[2.6]non-5-yl)-N-[1-methyl-3-(trifluoromethyl)-1H-pyrazol-4-yl]pyrrolo[1,2-b]pyridazine-7-carboxamide trifluoroacetate] displayed an IC50 of 27 nM.

As to `O=C(Nc1ccsc1Br)c1ccc2ccc(N3C[C@H]4CC[C@@H]3CN4)nn12` (single isomer, unassigned) [Example 79, N-(2-bromothiophen-3-yl)-2-[(1S,4S)- or (1R,4R)-2,5-diazabicyclo[2.2.2]oct-2-yl]pyrrolo[1,2-b]pyridazine-7-carboxamide trifluoroacetate], the IC50 worked out at 192 nM. For `O=C(Nc1cscc1Cl)c1ccc2ccc(N3C[C@H]4CC[C@@H]3CN4)nn12` (single isomer, unassigned) [Example 84, N-(4-chlorothiophen-3-yl)-2-[(1S,4S)- or (1R,4R)-2,5-diazabicyclo[2.2.2]oct-2-yl]pyrrolo[1,2-b]pyridazine-7-carboxamide trifluoroacetate], half-maximal inhibition (IC50) was put at 126 nM. In the case of `Cn1cc(NC(=O)c2ccc3ccc(N[C@@H]4CCCC(F)(F)[C@@H]4N)nn23)c(Br)n1` [Example 32, 2-{[(1R,2R)-2-amino-3,3-difluoro-cyclohexyl]amino}-N-(3-bromo-1-methyl-1H-pyrazol-4-yl)pyrrolo[1,2-b]pyridazine-7-carboxamide trifluoroacetate] it was 275 nM; in that of `N#Cc1cscc1NC(=O)c1ccc2ccc(N3CC4CCC3CN4)nn12` (stereo not shown) [Example 74, N-(4-cyanothiophen-3-yl)-2-(2,5-diazabicyclo[2.2.2]oct-2-yl)pyrrolo[1,2-b]pyridazine-7-carboxamide trifluoroacetate], 134 nM.
